Experimental data: patent US20220192984A1, “PHARMACEUTICAL COMPOSITIONS COMPRISING OTIC THERAPEUTIC AGENTS AND RELATED METHODS” (Frequency Therapeutics, Inc., priority 2018, published 2022)
Where a name gives a salt, the structure may show the parent alone. Read-outs that look alike come from different tables or passages of the source.

Columns and labels:
GSK-3 alpha = GSK-3 alpha (Homo sapiens, UniProt P49840); conditions: cited from earlier work
[1] = Perilymph Conc. listed for agents (Tables 14-25)
DOT1L [2] = biological target: T1, DOT1L (Homo sapiens, UniProt Q8TEK3); conditions: Table 20; read-out: pKi or IC50 (converted); cited from earlier work
T1 sequence (Q8TEK3 whole entry, species assumed): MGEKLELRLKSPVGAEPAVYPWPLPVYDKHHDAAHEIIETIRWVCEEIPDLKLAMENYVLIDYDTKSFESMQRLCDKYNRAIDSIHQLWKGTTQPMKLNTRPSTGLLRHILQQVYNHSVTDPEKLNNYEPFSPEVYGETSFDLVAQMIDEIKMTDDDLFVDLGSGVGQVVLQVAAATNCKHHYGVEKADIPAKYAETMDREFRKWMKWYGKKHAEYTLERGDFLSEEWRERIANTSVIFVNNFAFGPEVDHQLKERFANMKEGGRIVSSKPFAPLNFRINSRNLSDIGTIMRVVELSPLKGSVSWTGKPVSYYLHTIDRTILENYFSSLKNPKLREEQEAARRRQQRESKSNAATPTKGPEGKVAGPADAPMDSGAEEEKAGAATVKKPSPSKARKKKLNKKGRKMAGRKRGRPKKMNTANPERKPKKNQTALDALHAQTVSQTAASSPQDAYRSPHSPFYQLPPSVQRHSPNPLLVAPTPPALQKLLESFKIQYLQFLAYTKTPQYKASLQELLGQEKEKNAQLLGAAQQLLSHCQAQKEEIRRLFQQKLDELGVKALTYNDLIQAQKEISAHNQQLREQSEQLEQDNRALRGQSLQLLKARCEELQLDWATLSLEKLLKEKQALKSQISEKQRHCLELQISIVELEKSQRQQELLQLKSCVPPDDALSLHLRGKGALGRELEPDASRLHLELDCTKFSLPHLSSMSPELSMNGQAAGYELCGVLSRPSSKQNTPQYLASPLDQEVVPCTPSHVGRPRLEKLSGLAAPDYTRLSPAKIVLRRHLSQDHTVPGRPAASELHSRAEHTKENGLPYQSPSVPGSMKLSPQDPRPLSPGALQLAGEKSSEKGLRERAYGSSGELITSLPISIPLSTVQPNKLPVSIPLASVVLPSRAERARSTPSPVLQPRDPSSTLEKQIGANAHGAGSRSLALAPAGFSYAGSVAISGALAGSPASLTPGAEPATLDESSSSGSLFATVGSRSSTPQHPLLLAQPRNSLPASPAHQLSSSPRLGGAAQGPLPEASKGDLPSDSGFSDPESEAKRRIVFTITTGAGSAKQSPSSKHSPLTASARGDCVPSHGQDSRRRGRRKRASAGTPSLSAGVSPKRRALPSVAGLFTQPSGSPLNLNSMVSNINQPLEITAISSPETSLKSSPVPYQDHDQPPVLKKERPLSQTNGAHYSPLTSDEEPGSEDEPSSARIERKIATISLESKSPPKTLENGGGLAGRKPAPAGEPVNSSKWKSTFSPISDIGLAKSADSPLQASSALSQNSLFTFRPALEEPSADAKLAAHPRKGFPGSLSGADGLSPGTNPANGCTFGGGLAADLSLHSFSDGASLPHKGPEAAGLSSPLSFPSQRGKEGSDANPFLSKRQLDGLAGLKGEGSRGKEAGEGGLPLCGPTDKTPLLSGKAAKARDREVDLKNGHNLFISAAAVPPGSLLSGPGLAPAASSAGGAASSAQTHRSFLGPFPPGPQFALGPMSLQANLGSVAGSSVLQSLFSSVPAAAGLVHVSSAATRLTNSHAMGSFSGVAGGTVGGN

[3] = Human In Vivo Conc listed for agents
DOT1L [4] = biological target: T1, DOT1L; conditions: Table 20; cited from earlier work
Lgr5+ cells = test: Lgr5+ Assay (Lgr5+ cell assay in vitro); format: cell-based
TAZ = conditions: Table 22; cited from earlier work
[5] = cited from earlier work
EZH-1 = EZH-1 (Homo sapiens, UniProt Q92800); conditions: Table 19; read-out: Select vs EZH-1; cited from earlier work
Sequence of EZH-1 (Q92800 whole entry, species assumed): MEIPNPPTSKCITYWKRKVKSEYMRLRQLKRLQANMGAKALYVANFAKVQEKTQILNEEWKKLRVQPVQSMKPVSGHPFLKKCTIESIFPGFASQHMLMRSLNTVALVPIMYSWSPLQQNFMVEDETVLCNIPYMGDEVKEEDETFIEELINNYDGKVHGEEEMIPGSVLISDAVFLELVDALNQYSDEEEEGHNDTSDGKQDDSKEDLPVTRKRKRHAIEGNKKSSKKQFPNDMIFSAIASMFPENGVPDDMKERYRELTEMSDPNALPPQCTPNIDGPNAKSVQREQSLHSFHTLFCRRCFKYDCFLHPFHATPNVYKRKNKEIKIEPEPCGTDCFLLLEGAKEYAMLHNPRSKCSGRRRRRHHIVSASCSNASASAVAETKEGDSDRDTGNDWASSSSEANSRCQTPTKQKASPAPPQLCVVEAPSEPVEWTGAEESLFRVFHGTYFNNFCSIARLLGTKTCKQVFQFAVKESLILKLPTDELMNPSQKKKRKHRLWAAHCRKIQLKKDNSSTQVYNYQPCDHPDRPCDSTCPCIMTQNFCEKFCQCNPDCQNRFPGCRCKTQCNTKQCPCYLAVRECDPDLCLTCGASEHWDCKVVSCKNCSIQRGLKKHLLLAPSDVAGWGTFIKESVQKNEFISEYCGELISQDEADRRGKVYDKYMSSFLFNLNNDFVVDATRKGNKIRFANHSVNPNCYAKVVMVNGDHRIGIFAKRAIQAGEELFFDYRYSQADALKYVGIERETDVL
Sequence of EZH-1 (O75530 whole entry partner, species assumed): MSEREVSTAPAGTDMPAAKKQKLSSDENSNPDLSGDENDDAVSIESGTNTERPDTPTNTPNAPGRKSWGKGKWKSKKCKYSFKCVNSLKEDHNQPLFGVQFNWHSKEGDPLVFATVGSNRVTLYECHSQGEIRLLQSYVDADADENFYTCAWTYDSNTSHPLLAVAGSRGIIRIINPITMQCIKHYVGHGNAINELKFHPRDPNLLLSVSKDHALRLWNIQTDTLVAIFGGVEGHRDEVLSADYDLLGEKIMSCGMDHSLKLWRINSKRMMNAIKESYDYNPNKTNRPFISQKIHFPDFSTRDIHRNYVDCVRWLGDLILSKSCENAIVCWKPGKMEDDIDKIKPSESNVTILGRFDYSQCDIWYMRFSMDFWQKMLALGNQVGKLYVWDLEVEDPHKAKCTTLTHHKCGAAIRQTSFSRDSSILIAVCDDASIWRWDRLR
Sequence of EZH-1 (Q15022 whole entry partner, species assumed): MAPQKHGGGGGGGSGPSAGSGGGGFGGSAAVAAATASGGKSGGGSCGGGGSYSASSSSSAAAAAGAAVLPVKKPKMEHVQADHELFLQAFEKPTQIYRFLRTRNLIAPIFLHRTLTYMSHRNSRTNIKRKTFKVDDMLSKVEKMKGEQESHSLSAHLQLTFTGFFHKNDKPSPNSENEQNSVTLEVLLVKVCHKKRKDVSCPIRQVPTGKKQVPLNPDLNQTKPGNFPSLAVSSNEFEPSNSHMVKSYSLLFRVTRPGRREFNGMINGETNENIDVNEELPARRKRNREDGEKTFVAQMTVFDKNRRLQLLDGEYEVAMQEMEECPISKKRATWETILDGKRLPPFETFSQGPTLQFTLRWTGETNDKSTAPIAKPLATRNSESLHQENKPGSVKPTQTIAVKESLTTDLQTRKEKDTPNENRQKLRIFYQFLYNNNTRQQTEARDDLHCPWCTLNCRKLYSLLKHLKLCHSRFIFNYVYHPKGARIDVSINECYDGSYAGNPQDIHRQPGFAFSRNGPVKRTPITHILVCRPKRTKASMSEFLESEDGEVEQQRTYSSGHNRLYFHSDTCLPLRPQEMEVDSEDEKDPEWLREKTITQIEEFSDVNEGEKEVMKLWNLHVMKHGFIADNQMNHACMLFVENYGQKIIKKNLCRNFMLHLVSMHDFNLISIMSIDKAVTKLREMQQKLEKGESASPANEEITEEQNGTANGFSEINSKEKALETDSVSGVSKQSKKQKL

KDM [6] = conditions: cited from earlier work
KDM [7] = conditions: Table 21; cited from earlier work
EZH2 [8] = biological target: T2, EZH2 (Homo sapiens, UniProt Q15910); conditions: Table 19, EZH2; read-out: pKi or IC50 (converted); cited from earlier work
T2 sequence (Q15910 whole entry, species assumed): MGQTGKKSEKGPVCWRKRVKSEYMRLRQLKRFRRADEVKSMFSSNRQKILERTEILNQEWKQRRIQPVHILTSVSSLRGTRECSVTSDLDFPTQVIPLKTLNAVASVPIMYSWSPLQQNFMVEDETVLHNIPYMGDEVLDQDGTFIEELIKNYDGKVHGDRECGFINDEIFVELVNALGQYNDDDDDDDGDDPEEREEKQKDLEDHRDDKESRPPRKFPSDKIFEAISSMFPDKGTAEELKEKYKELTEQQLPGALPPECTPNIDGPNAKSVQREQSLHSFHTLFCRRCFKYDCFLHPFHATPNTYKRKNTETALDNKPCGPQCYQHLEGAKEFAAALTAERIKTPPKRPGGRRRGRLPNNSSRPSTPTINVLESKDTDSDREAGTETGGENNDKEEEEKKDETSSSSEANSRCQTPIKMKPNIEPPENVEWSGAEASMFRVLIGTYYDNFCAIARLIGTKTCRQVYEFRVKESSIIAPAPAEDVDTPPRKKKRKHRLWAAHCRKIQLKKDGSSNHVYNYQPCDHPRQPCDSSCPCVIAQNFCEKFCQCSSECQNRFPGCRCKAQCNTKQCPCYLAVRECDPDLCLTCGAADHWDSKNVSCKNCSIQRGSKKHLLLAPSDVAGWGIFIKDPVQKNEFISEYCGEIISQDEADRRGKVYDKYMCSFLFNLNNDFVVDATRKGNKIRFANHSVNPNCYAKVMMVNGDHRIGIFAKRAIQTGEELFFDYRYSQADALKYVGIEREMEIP
T2 sequence (O75530 whole entry partner, species assumed): as the sequence (O75530 whole entry partner, species assumed) above
T2 sequence (Q15022 whole entry partner, species assumed): as the sequence (Q15022 whole entry partner, species assumed) above

EZH2 [9] = biological target: T2, EZH2; conditions: Table 19; cited from earlier work
MAO A = biological target: T3, MAO A (Homo sapiens, UniProt P21397); conditions: Table 18, MAO A (first value or marked A); read-out: Select MAOs A and B; cited from earlier work
T3 sequence (P21397 1-527): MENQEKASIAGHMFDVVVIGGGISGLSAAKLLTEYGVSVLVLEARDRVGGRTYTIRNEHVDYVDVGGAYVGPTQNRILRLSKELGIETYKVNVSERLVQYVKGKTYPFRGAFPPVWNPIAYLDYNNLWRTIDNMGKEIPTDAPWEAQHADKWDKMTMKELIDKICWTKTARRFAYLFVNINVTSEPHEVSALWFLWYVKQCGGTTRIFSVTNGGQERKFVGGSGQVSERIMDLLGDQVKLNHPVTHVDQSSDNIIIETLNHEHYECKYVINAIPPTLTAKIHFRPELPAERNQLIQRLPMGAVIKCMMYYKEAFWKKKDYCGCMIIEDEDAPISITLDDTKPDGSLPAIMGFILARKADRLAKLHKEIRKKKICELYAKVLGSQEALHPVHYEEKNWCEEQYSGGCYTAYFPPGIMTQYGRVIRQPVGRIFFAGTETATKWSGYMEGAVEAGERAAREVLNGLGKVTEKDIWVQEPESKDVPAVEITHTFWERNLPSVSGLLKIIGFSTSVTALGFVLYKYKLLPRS

MAO B = biological target: T4, MAO B (Homo sapiens, UniProt P27338); conditions: Table 18, MAO B (second value or marked B); read-out: Select MAOs A and B; cited from earlier work
T4 sequence (P27338 1-520): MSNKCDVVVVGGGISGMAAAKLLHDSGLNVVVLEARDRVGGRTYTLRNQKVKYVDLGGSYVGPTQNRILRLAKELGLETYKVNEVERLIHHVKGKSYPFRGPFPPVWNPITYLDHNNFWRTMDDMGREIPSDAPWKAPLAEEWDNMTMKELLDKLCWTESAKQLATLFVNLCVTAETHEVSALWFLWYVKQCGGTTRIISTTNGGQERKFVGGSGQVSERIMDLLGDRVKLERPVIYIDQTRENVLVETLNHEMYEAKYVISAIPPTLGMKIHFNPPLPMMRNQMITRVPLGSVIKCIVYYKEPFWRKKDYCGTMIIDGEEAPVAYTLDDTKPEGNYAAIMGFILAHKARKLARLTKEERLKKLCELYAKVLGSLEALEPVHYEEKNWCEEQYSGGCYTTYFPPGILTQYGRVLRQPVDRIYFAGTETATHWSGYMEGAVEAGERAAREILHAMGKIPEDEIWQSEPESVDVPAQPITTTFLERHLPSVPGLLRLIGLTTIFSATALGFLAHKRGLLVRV

LSD1 [10] = biological target: T5, LSD1 (Homo sapiens, UniProt O60341); conditions: Table 18; cited from earlier work
LSD1 [11] = biological target: T5, LSD1; conditions: Table 18, LSD1; read-out: pKi or IC50 (converted); cited from earlier work
HDAC = conditions: Mechanism HDAC Inhib 1, 2, 3, 8; cited from earlier work
[12] = Table 14, listed concentration, no test described
[13] = Table 20, listed concentration, no test described
[14] = Table 22, listed concentration, no test described
[15] = Table 21, KDM 4, read-out: Select KDM 4
[16] = HDAC inhibitor table, upper end of the wrapped range 100 uM-4 mM
[17] = HDAC inhibitor table, upper end of the wrapped range 100 uM-4 mM, no test described

Sequence of GSK-3 alpha (P49840 whole entry): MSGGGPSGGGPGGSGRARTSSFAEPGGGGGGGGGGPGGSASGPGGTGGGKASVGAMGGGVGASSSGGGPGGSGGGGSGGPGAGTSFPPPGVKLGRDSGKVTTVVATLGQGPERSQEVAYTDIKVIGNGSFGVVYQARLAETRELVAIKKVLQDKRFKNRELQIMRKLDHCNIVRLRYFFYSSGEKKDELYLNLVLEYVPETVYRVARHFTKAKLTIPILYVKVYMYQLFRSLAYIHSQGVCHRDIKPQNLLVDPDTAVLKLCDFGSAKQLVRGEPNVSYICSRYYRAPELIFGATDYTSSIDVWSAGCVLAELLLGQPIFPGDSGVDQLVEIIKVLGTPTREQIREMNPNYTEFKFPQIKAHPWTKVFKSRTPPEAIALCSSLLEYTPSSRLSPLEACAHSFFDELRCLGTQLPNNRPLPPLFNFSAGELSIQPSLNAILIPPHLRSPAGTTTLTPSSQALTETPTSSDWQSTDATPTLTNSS

## N#Cc1ccc2[nH]c(O)c(-c3ccc(CN4CCOCC4)cn3)c2c1 [AZD 1080]
GSK-3 alpha
  GSK-3 alpha: 6.9 nM
[1]; [12]
  Perilymph Conc: 1 to 5 µM

## CNc1ccnc(Nc2ccc3cc(C)n(-c4ccccc4Oc4cnc5c(c4)ncn5C)c3c2)n1 [Compound 13]
DOT1L [2]
  IC50: 0.4 nM

## CC(C)N(CCCNC(=O)Nc1ccc(C(C)(C)C)cc1)C[C@H]1O[C@@H](n2cc(Br)c3c(N)ncnc32)[C@H](O)[C@@H]1O [SGC0946]
[3]; Table 20
  Human In Vivo Conc: 0.1 to 5 µM
[1]; [13]
  Perilymph Conc: 0.6 to 5 µM
DOT1L [4]
  Lit Cell: 10 nM

## CCCCc1nc2cc(-c3cccnc3)c(C)nc2n1Cc1ccc(-c2ccccc2-c2nn[nH]n2)cc1 [TM-25659]
Lgr5+ cells; Table 22
  Lgr5+ Assay: 10 to 100 µM
TAZ
  Lit Cell: 10 to 100 µM
[1]; [14]
  Perilymph Conc: 10 to 100 µM

## CPI-169
[5]; Table 19
  Human In Vivo Conc: 1 to 10 µM
EZH-1
  IC50: 6 nM
[1]; Table 19
  Perilymph Conc: 1 to 10 µM

## CC(C)c1c(-c2ccccc2)[nH]c2c(C#N)cnn2c1=O [CPI-455]
KDM [6]; [15]
  IC50: 41 nM
KDM [7]
  Lit Cell: 0.09 µM

## Cc1cc(C)c(CNC(=O)c2cc(-c3ccc(N4CCN(C)CC4)nc3)cc3c2cnn3C(C)C)c(=O)[nH]1 [GSK926]
EZH2 [8]
  IC50: 7.9 nM
EZH2 [9]
  Lit Cell Poten: 324 nM

## O=C(O)CCNc1cc(N2CCc3ccccc3CC2)nc(-c2ccccn2)n1 [GSK-J1]
KDM [7]
  Lit Cell: 50 µM

## CC(C)N(CCCNC(=O)Nc1ccc(C(C)(C)C)cc1)C[C@H]1O[C@@H](n2ccc3c(N)ncnc32)[C@H](O)[C@@H]1O [EPZ004777]
[3]; Table 20
  Human In Vivo Conc: 0.1 to 45 µM
Lgr5+ cells; Table 20
  Lgr5+ Assay: 0.6 to 45 µM
[1]; [13]
  Perilymph Conc: 0.6 to 45 µM

## O=C(O)CCN(O)C(=O)CCCCCCCCC1CC1 [TC-E5002]
Lgr5+ cells; Table 21
  Lgr5+ Assay: 0.12 to 10 µM
[5]; Table 21
  Human In Vivo Conc: 0.12 to 10 µM
KDM [6]; [15]
  IC50: 83000 nM
KDM [6]; Table 21, KDM 5, read-out: Select KDM 5
  IC50: 55000 nM
KDM [6]; Table 21, KDM 6, read-out: Select KDM 6
  IC50: > 100000 nM
KDM [7]
  Lit Cell: 1640 µM
[1]; Table 21
  Perilymph Conc: 0.12 to 10 µM

## Cn1cc(C(=O)Nc2ccc([C@@H]3C[C@H]3NCC3CC3)cc2)cn1 [Compound T-3775440]
MAO A
  IC50: 110000 nM
MAO B
  IC50: 17000 nM

## Cc1ccc(-c2ncc(OC[C@@H]3CCNC3)cc2-c2ccc(C#N)cc2)cc1 [GSK-354]
LSD1 [10]
  Literat. Cell: 1300 nM
MAO B
  IC50: 19000 nM
LSD1 [11]
  IC50: 29 to 80 nM

## Cc1ncccc1-c1c(Cl)sc2ccc(NC(=O)NCC(=O)NCCCN(C)[C@@H]3CCCN(c4ncnc5[nH]ccc45)C3)cc12 [Compound 7]
DOT1L [2]
  IC50: < 1 nM

## CCCc1cc(C)[nH]c(=O)c1CNC(=O)c1cc(-c2ccc(N3CCN(C(C)C)CC3)nc2)cc2c1cnn2C(C)C [UNCI 999]
Lgr5+ cells; Table 19, result in words
  Lgr5+ Assay: Activity
EZH2 [8]
  IC50: 10 nM
EZH2 [9]
  Lit Cell Poten: 124 nM

## COc1cc(C)[nH]c(=O)c1CN1CCc2c(Cl)cc([C@H](OC)C3COC3)c(Cl)c2C1=O [PF-06821497]
[5]; Table 19
  Human In Vivo Conc: 0.005 to 0.05 µM
EZH-1
  IC50: 70 nM
EZH2 [8]
  IC50: < 1 nM
EZH2 [9]
  Lit Cell Poten: 4 to 6 nM
[1]; Table 19
  Perilymph Conc: 0.001 to 0.1 µM

## C#CCC(CCCCCC)C(=O)O (centres unmarked) [2-hexyl-4-pentynoic acid]
HDAC
  HDAC Potenc: 13 µM
Lgr5+ cells; [16]
  Lgr5+ Assay: ≤ 4000 µM
[1]; [17]
  Perilymph Conc: ≤ 4000 µM

## N[C@H]1CC[C@H](N[C@@H]2C[C@H]2c2ccccc2)CC1 (relative stereo) [ORY-1001]
LSD1 [10]
  Literat. Cell: 0.5 to 3 nM
MAO A
  IC50: > 100000 nM

## O=C(O)CCCc1ccccc1 [Na phenylbutyrate]
HDAC
  HDAC Potenc: 9 to 16 µM
Lgr5+ cells; [16]
  Lgr5+ Assay: ≤ 4000 µM
[1]; [17]
  Perilymph Conc: ≤ 4000 µM

## NNCCc1ccccc1 [Phenelzine sulfate]
LSD1 [10]
  Literat. Cell: 900 nM
[3]; human, plasma, Table 18, value in brackets, converted
  Cmax: 73 to 440 nM

## CC(C)N(C[C@H]1O[C@@H](n2cnc3c(N)ncnc32)[C@H](O)[C@@H]1O)[C@H]1C[C@@H](CCc2nc3cc(C(C)(C)C)ccc3[nH]2)C1 [Pinometostat (EPZ-5676)]
[3]; Table 20
  Human In Vivo Conc: (1-10 uM
[1]; [13]
  Perilymph Conc: 0.1 to 10 µM
DOT1L [4]
  Lit Cell: 2.7 nM

## CCN(c1cc(-c2ccc(CN3CCOCC3)cc2)cc(C(=O)NCc2c(C)cc(C)[nH]c2=O)c1C)C1CCOCC1 [Tazemetostat]
[3]; Table 19, value in brackets, converted
  Human In Vivo Conc: (200-1600 nM)
[5]; Table 19
  Human In Vivo Conc: 100 to 800 ng/mL
[1]; Table 19
  Perilymph Conc: 0.37 to 1.1 µM

## N#Cc1c2c(c3nncn3c1NCc1ccco1)CN(Cc1ccccc1)CC2 [EED162]
EZH2 [8]
  IC50: 30 nM
EZH2 [9]
  Lit Cell Poten: 80 nM

## C=CCNc1nc(N)c(C(=O)c2ccc(F)s2)s1 [TT10]
Lgr5+ cells; Table 22
  Lgr5+ Assay: 1 to 10 µM
TAZ
  Lit Cell: 1 µM
[1]; [14]
  Perilymph Conc: 1 to 10 µM

## Cc1ccc(C(=O)Nc2c[nH]nc2C(=O)NCCCOC(C)C)cn1 [GSK XXII]
Lgr5+ cells; Table 14
  Lgr5+ Assay: 0.2 to 1 µM
GSK-3 alpha
  GSK-3 alpha: 2.3 nM
[1]; [12]
  Perilymph Conc: 0.2 to 1 µM
